Reference: paper PMC10489911 (2023)

Experiments:
[1] = test system: AG3(T2AG3)3 (G4-Tel, telomeric G4) (DNA, G4) AGGGTTAGGGTTAGGGTTAGGG; assay: G4-FID fluorescence displacement; details: K+ 100 mM KCl, plus potassium phosphate, PBS pH 6.8, 25 °C, thiazole orange displaced
[2] = test system: AG3(T2AG3)3 (G4-Tel, telomeric G4) (DNA, G4) AGGGTTAGGGTTAGGGTTAGGG; assay: UV-Vis titration; details: K+ 100 mM KCl, plus potassium phosphate, 20 mM phosphate, pH 6.8, ligand 2 μM
[3] = test system: AG3(T2AG3)3 (G4-Tel, telomeric G4) (DNA, G4) AGGGTTAGGGTTAGGGTTAGGG; assay: CD melting at 295 nm; details: K+ 100 mM KCl, plus potassium phosphate; 20 mM phosphate, pH 6.8; 2 equivalents of ligand; Tm 56.1 alone

Row | DC50 ([1]; text prints 1.04) [µM] | Kb ([2]; ligand aggregates in buffer) | ΔTm [3] [°C] | DC50 [1] [µM] | DC50 ([1]; table prints 0.90 ± 0.04, its ratio 2.01 fits 0.99) [µM] | Kb [2] | SMILES
1 | 1.02 ± 0.06 | 3.71 ± 1.28 × 10^6 M^−1 | 8.5 | – | – | – | C[n+]1ccc(-c2cc3c(cc2-c2cc[n+](C)cc2)-c2nc-3c(-c3ccccc3)c3ccc([n-]3)c(-c3ccccc3)c3nc(c(-c4ccccc4)c4ccc([n-]4)c2-c2ccccc2)-c2cc(-c4cc[n+](C)cc4)c(-c4cc[n+](C)cc4)cc2-3)cc1.[Ni+2]
2 | – | 7.05 ± 1.31 × 10^6 M^−1 | 7.4 | 0.42 ± 0.08 | – | – | C[n+]1ccc(-c2cc3c(cc2-c2cc[n+](C)cc2)-c2nc-3c(-c3ccccc3)c3ccc([n-]3)c(-c3ccccc3)c3nc(c(-c4ccccc4)c4ccc([n-]4)c2-c2ccccc2)-c2cc(-c4cc[n+](C)cc4)c(-c4cc[n+](C)cc4)cc2-3)cc1.[Zn+2]
3 | – | – | 2.3 | – | 0.99 | 6.01 ± 1.11 × 10^6 M^−1 | C[n+]1ccc(-c2cc3c(cc2-c2cc[n+](C)cc2)-c2nc-3c(-c3ccccc3)c3ccc([nH]3)c(-c3ccccc3)c3nc(c(-c4ccccc4)c4ccc([nH]4)c2-c2ccccc2)-c2cc(-c4cc[n+](C)cc4)c(-c4cc[n+](C)cc4)cc2-3)cc1
